Reference: US20100009970A1, “COMPOSITIONS AND METHODS FOR TREATMENT OF VIRAL DISEASES” (Combinatorx (Singapore) Pte. Ltd., priority 2008, published 2010)
Read-outs that look alike come from different tables or passages of the source.

What was measured:
in vitro = conditions: human
[1] = system: Huh7 cells expressing a subgenomic RNA replicon of Con1 (genotype 1b) sequence origin; experiment: microbe, parasite or virus in culture; conditions: Hepatitis C virus
[2] = GETYPE1B, Huh-7, 72 h, read-out: Max Effect @CC30 (inhibition)
[3] = Huh-7, read-out: IC50 (uM) [SG]
[4] = Huh-7, read-out: Max Effect@CC30 (inhibition)

SMILES | CC50 (in vitro; CC50 (uM) [SG]) | IC50 [1, 3] | Emax [1, 4] | IC90 ([1]; Huh-7) | further results
CN[C@H]1CC[C@@H](c2ccc(Cl)c(Cl)c2)c2ccc([N+](=O)[O-])cc21 [Nitro Sertraline, (1S,4S)-4-(3,4-dichlorophenyl)-N-methyl-7-nitro-1,2,3,4-tetrahydronaphthalen-1-amine] | 8.03 µM | 6.46 µM | 27% |  | CC50 (in vitro; CC50 (uM)): 8.03 µM; Emax [1, 2]: 27%; IC50 ([1]; Huh-7, 72 h): 6.46 µM
CC(=O)N(C)c1ccc2c(c1)[C@@H](N(C)C)CC[C@H]2c1ccc(Cl)c(Cl)c1 | 14.6 µM | 3.79 µM | 91.7% |  | 
CC(C)C1CCC(c2ccc(Cl)c(Cl)c2)c2ccccc21 (centres unmarked) [Isopropyl Sertraline, 1-(3,4-dichlorophenyl)-4-isopropyl-1,2,3,4-tetrahydronaphthalene] | > 50 µM | 9.25 ± 0.95 µM | 97.96 ± 0.06% | 32.1 µM | 
CSc1ccc(Oc2ccc(C(N)=O)cc2CN(C)C)cc1C [Compound 10, 3-((dimethylamino)methyl)-4-(3-methyl-4-(methylthio)phenoxy)benzamide] | > 50 µM | 26.9 µM | 80.7% |  | 
CSc1ccc(N2CN(C)Cc3cc(Br)ccc32)cc1C [Compound 78, 6-bromo-3-methyl-1-(3-methyl-4-(methylthio)phenyl)-1,2,3,4-tetrahydroquinazoline] | 24.9 µM | 13.7 µM |  | 15.5 µM | 
CNC1CCC(c2cccc(OC)c2)c2ccccc21 (centres unmarked) [Sertraline B ring m-Methoxy, 4-(3-methoxyphenyl)-N-methyl-1,2,3,4-tetrahydronaphthalen-1-amine] | > 50 µM | 28.8 µM |  |  | 
CSc1ccc(Oc2ccc(S(N)(=O)=O)cc2CN2CCCCC2)cc1C [Compound 73, 4-(3-methyl-4-(methylthio)phenoxy)-3-(piperidin-1-ylmethyl)benzenesulfonamide] | 37.9 µM | 4.7 µM |  | 13.6 µM | 
CN(CCO)[C@H]1CC[C@@H](c2ccc(Cl)c(Cl)c2)c2ccccc21 [N-Ethanol Sertraline, 2-(((1S,4S)-4-(3,4-dichlorophenyl)-1,2,3,4-tetrahydronaphthalen-1-yl)(methyl)amino)ethanol] | 49.8 µM | 7.8 µM | 93% | 21.9 µM | 
CSc1ccc(Oc2ccc(S(N)(=O)=O)cc2CN(C)C)cc1 [Compound 46, 3-((dimethylamino)methyl)-4-(4-(methylthio)phenoxy)benzenesulfonamide] | > 50 µM | 26.3 µM | 83.2% | 60.9 µM | CC50 (in vitro; CC50 (uM)): > 50 µM; IC50 ([1]; Huh-7): 26.3 µM; Emax ([1]; Huh-7, read-out: Max Effect @CC30 (inhibition)): 83.2%
CNCc1cc([N+](=O)[O-])ccc1Oc1ccc(SC)c(C)c1 [Compound 50, N-methyl-1-(2-(3-methyl-4-(methylthio)phenoxy)-5-nitrophenyl)methanamine] | 26.1 µM | 6.04 µM | 90% | 11.4 µM | 
CN[C@H]1CC[C@@H](c2ccc(Cl)c(Cl)c2)c2ccc(C(N)=O)cc21 [Sertraline A ring carboxamide, (5S,8S)-5-(3,4-dichlorophenyl)-8-(methylamino)-5,6,7,8-tetrahydronaphthalene-2-carboxamide] | 16.2 µM | 1.8 µM |  |  | 
CSc1ccc(Oc2ccccc2CN(C)C)cc1C [Compound 8, N,N-dimethyl-1-(2-(3-methyl-4-(methylthio)phenoxy)phenyl)methanamine] | 36 µM | 12.2 µM | 52.3% |  | 
CSc1ccc(Oc2ccc(S(N)(=O)=O)cc2CN(C)CCN(C)C)cc1C [Compound 97, 3-(((2-(dimethylamino)ethyl)(methyl)amino)methyl)-4-(3-methyl-4-(methylthio)phenoxy)benzenesulfonamide] | 43.3 µM | 12.4 µM |  | 14 µM | 
CSc1ccc(Oc2ccc(S(N)(=O)=O)cc2CN2CCCC2)cc1C [Compound 101, 4-(3-methyl-4-(methylthio)phenoxy)-3-(pyrrolidin-1-ylmethyl)benzenesulfonamide] | 40.6 µM | 1.74 µM |  | 4.74 µM | 
COc1ccc(Oc2ccc(Br)cc2CN(C)C)cc1 [Compound 42, (5-bromo-2-(4-methoxyphenoxy)phenyl)-N,N-dimethylmethanamine] | > 50 µM | 30.8 µM | 51.7% |  | 
CN(C)[C@H]1CC[C@@H](c2ccc(Cl)c(Cl)c2)c2ccc(C(=O)NCC3CC3)cc21 [(5S,8S)—N-(cyclopropylmethyl)-5-(3,4-dichlorophenyl)-8-(dimethylamino)-5,6,7,8-tetrahydronaphthalene-2-carboxamide] | 19.4 µM | 5.61 µM |  | 12.2 µM | 
CSc1ccc(Oc2ccc(S(N)(=O)=O)cc2N)cc1C [Compound 58, 3-amino-4-(3-methyl-4-(methylthio)phenoxy)benzenesulfonamide] | > 50 µM | 15.3 µM |  |  | 

SMILES | CC50 (in vitro; CC50 (uM) [SG]) | IC50 [1, 3] | Emax [1, 4] | IC90 ([1]; Huh-7) | further results
CSc1ccc(Nc2ccc(S(N)(=O)=O)cc2CN(C)C)cc1C [Compound 108, 3-((dimethylamino)methyl)-4-(3-methyl-4-(methylthio)phenylamino)benzensulfonamide] | 44.9 µM | 2.64 µM |  | 17 µM | 
CNC1CCC(c2ccc(OC)cc2)c2ccccc21 (centres unmarked) [Sertraline B-Ring Para-Methoxy, 4-(4-methoxyphenyl)-N-methyl-1,2,3,4-tetrahydronaphthalen-1-amine] | 51.1 µM | 26.8 µM |  |  | 
CN[C@@H]1CC[C@H](c2ccc(Cl)c(Cl)c2)c2ccccc21 [1R,4R Sertraline Enantiomer, (1R,4R)-4-(3,4-dichlorophenyl)-N-methyl-1,2,3,4-tetrahydronaphthalen-1-amine] | 14.6 ± 0.37 µM |  | 58.7 ± 23.6% |  | CC50 at 72 h (in vitro; CC50 (uM)): 14.3 µM; Emax [1, 2]: 42%
CSc1ccc(Oc2ccc(S(N)(=O)=O)cc2CN2CCN(C(C)C)CC2)cc1C [Compound 106, 3-((4-isopropylpiperazin-1-yl)methyl)-4-(3-methyl-4-(methylthio)phenoxy)benzenesulfonamide] | 24.3 µM | 3.57 µM |  | 8.21 µM | 
CSc1ccc(Oc2ccc(S(=O)(=O)Nc3ccc(Br)cc3)cc2CN(C)C)cc1C [Compound 57, N-(4-bromophenyl)-3-((dimethylamino)methyl)-4-(3-methyl-4-(methylthio)phenoxy)benzenesulfonamide] | 8.17 µM | 11 µM |  |  | 
CSc1ccc(Oc2ccc(S(N)(=O)=O)cc2CN2CCN(c3ccncc3)CC2)cc1C [Compound 91, 4-(3-methyl-4-(methylthio)phenoxy)-3-((4-(pyridin-4-yl)piperazin-1-yl)methyl)benzenesulfonamide] | 9.86 µM | 4.91 µM |  |  | 
CSc1ccc(Oc2ccc(S(N)(=O)=O)cc2CNCCN(C)C)cc1C [Compound 96, 3-((2-(dimethylamino)ethylamino)methyl)-4-(3-methyl-4-(methylthio)phenoxy)benzenesulfonamide] | 19.4 µM | 2.77 µM |  | 5.89 µM | 
CN[C@H]1CC[C@@H](c2ccc(Cl)c(Cl)c2)c2ccc(S(=O)(=O)NCCO)cc21 [Sertraline Sulfonamide Ethanol, (5S,8S)-5-(3,4-dichlorophenyl)-N-(2-hydroxyethyl)-8-(methylamino)-5,6,7,8-tetrahydronaphthalene-2-sulfonamide] | 13.8 µM | 8.13 µM | 80% |  | CC50 (in vitro; CC50 (uM)): 13.8 µM; Emax [1, 2]: 80%; IC50 ([1]; Huh-7, 72 h): 8.13 µM
CN(C)[C@H]1CC[C@@H](c2ccc(Cl)c(Cl)c2)c2ccc(C(=O)NC3CC3)cc21 [(5S,8S)—N-cyclopropyl-5-(3,4-dichlorophenyl)-8-(dimethylamino)-5,6,7,8-tetrahydronaphthalene-2-carboxamide] | 25.4 µM | 7.3 µM |  |  | 
CSc1ccc(Oc2ccc(S(N)(=O)=O)cc2CN2CCC[C@H]2CN2CCCC2)cc1C [Compound 105, (S)-4-(3-methyl-4-(methylthio)phenoxy)-3-(((2-pyrrolidin-1-ylmethyl)pyrrolidin-1-yl)methyl)benzensulfonamide] | 22.2 µM | 6.38 µM |  | 6.86 µM | 
CSc1ccc(Oc2ccc(S(N)(=O)=O)cc2CN2CCOCC2)cc1C [Compound 82, 4-(3-methyl-4-(methylthio)phenoxy)-3-(morpholinomethyl)benzenesulfonamide] | > 50 µM | 20.8 µM |  |  | 
CNCc1cc(Br)ccc1Oc1ccc(SC)cc1 [Compound 34, (5-bromo-2-(4-(methylthio)phenoxy)phenyl)-N-methylmethanamine] | 35.5 µM | 24.6 µM | 72.6% |  | 
CSc1ccc(Oc2ccc(S(N)(=O)=O)cc2CN2CCN(C3CCN(C)CC3)CC2)cc1C [Compound 90, 4-(3-methyl-4-(methylthio)phenoxy)-3-((4-(1-methylpiperidin-4-yl)piperazin-1-yl)methyl)benzenesulfonamide] | 9.1 µM | 2.03 µM |  | 7.48 µM | 
CSc1ccc(Oc2ccc(S(N)(=O)=O)cc2CN2CCC[C@@H]2CO)cc1C [Compound 102, (R)-3-((2-(hydroxymethyl)pyrrolidin-1-yl)methyl)-4-(3-methyl-4-(methylthio)phenoxy)benzenesulfonamide] | > 50 µM | 6.76 µM |  | 17.6 µM | 
CSc1ccc(Oc2ccc(S(N)(=O)=O)cc2C=C(C)C)cc1C [Compound 86, 4-(3-methyl-4-(methylthio)phenoxy)-3-(2-methylprop-1-enyl)benzenesulfonamide] | > 50 µM | 34.8 µM |  |  | 
CN[C@H]1CC[C@@H](c2ccc(Cl)c(Cl)c2)c2ccc(I)cc21 [Sertraline Iodide, (1S,4S)-4-(3,4-dichlorophenyl)-7-iodo-N-methyl-1,2,3,4-tetrahydronaphthalen-1-amine] | 8.92 µM | 6.57 µM | 25% |  | CC50 (in vitro; CC50 (uM)): 8.92 µM; Emax [1, 2]: 25%; IC50 ([1]; Huh-7, 72 h): 6.57 µM
